{"source": "patent US11793199B2", "about": "“Formulations and methods for controlling rootworm larvae” (FMC Corporation, priority 2016, dated 2023)", "key": {"WCRW larvae": {"tested_on": "WCRW larvae", "experiment": "Residual activity of treated soil maintained outdoors, water pH 6, 7, 8 (Example 4)", "assay_type": "in vivo, Diabrotica virgifera virgifera", "method": "A solution of the Test Formula A was prepared by making dilutions in water to form a solution. Dry, Midwestern soil was brought up to 15% moisture with treatment solutions (Table 5). Buckets of treated soil were carted outside daily between Monday and Friday and exposed to direct sunlight. Carts were not wheeled out on days that forecasted precipitation. At the end of each day, soil buckets were brought back into the laboratory, weighed, the appropriate amount of water added to the soil to bring it back up to 15% moisture, and covered overnight; daily records of weights and amount of water added to each bucket was recorded.\nAt 30DAT, 42DAT, 57DAT, and 85DAT, […] WCRW larvae were infested into treated soil containing and germinating corn seed and evaluated 6 days after infestation (6DAI) for percent control and larval stunting. There were 6 replicates per infestation date with 5 larvae per replicate (n=30). Treatments applied to dry Midwestern soil for assessment of residual WCRW included Test Formula at 67, 267, and 1,069 ppm, Capture LFR at 1988.5 and 3,977 ppm."}, "2nd instar WCRW": {"tested_on": "2nd instar WCRW", "experiment": "Residual activity of treated Midwestern soil kept in lab at 15% moisture (Example 5)", "assay_type": "in vivo, Diabrotica virgifera virgifera", "method": "In order to induce seed germination prior to test initiation, corn seed was submerged in water for 12 h and then placed between layers of moistened paper towel for 72 h. Plastic Dart® containers (1 oz/30 ml) were utilized for the assay. Treatments included tetraniliprole Test Formula according to the present invention, Capture LFR® (bifenthrin), and Rugby® (cadusafos). A 60 g ai/ha foliar rate applied at a volume of 30GPA equates to 213.8 ppm. If this application rate was condensed into a 6″ T-band application that assumed a 30″ row spacing, the ppm rate would increase to 1069 ppm (213.8 ppm×5). Five rates were selected for the experimental treatment (Test Formula) and compared to a single rate of two standard treatments (Capture LFR and Rugby). Treatment solutions (Table 4) were mixed into dry, sifted, Midwestern soil, from Wyoming, Illinois, by adding 300mLs of solution into 2000 g of soil and equates to approximate 15% soil moisture value; soil clumped when pinched.\nAn estimated 0.75 cm of treated soil was placed into the bottom of each container, one germinated corn seed was placed onto the soil, and then the arenas were capped with a lid until rootworms were infested. Corn was covered with approximately 1.75 cm of treated soil. Using a fine tipped paint brush, 5 WCRW larvae (2nd instar) were transferred onto the soil of each replicate and then capped. There were 8 replicates and 40 larvae per treatment. Arenas containing soil, corn, and larvae were transferred into the Insectary room (≈23° C., 0 L:24D) and evaluated 6 days later for the presence of living larvae. Larvae not recovered within each arena were considered dead. Additional treated soil was maintained within a 5 gallon bucket, covered with aluminum […], and weights recorded. Additional water was added every Monday in order to maintain a 15% soil moisture level.\nAll mortality data was analyzed by ANOVA/GLM with an alpha of 0.1 (Minitab 16.0)."}}, "data": [{"substance": "tetraniliprole", "values": [{"measurement": "control to WCRW larvae", "setting": "WCRW larvae; 67 ppm (3.75 g ai/ha), soil kept outdoors, water pH 6, 7 or 8", "value": "≥ 87", "unit": "%"}, {"measurement": "state of surviving larvae compared to the non-treated check", "setting": "WCRW larvae; 67 ppm, 57 DAT and 85 DAT", "value": "severely stunted"}, {"measurement": "size of larvae", "setting": "2nd instar WCRW; 3.75 g ai/ha, 0 DAT", "value": "approximately half the size as the untreated check"}, {"measurement": "control to 2nd instar WCRW larvae at 64DAT", "setting": "2nd instar WCRW; 15, 30, 60 g ai/ha, lab soil at 15% moisture", "value": "≥ 95", "unit": "%"}, {"measurement": "larval stunting compared to the untreated check", "setting": "2nd instar WCRW; all treated soils, 0 DAT", "value": "Stunted larvae were detected"}, {"measurement": "protection to the root and shoot system of corn", "setting": "2nd instar WCRW; all treated soils, 0 DAT", "value": "evident"}, {"measurement": "2nd instar WCRW: % Mortality 0DAT", "setting": "2nd instar WCRW; lab soil 15% moisture, 66.8 ppm (3.75 g ai/ha in-furrow), after 144 h within treated soil", "value": "< 80", "unit": "%"}, {"measurement": "2nd instar WCRW: % Mortality 0DAT", "setting": "2nd instar WCRW; lab soil 15% moisture, 133.6 ppm (7.5 g ai/ha in-furrow), after 144 h within treated soil", "value": "< 80", "unit": "%"}, {"measurement": "2nd instar WCRW: % Mortality 0DAT", "setting": "2nd instar WCRW; lab soil, 534.5 ppm (30 g ai/ha in-furrow), after 144 h", "value": 97.5, "unit": "%"}, {"measurement": "2nd instar WCRW: % Mortality 0DAT", "setting": "2nd instar WCRW; lab soil, 1069 ppm (60 g ai/ha in-furrow), after 144 h", "value": 97.5, "unit": "%"}]}]}
